Laboratory results as given in PMC6356859 (ACS Omega, 2019).
“Also recorded” adds a separate entry of the source. Like-named read-outs stand apart in the source and are kept apart here.

Legend:
EBOV [1] = experiment: microbe, parasite or virus in culture; format: cell-based, Ebola virus
EBOV [2] = conditions: cited from earlier work
EBOV [3] = conditions: read-out: IC50 for the inhibition of virus entry in cells; cited from earlier work
EBOV [4] = conditions: cited from earlier work; remark: listed apart in the source

Nc1nc2c(ncn2COCCO)c(=O)[nH]1 [Acyclovir]
EBOV activity (in words) (EBOV [1]): lacked an activity

C[C@H]1[C@H](OC(=O)CCC(=O)O)O[C@@H]2O[C@@]3(C)CC[C@H]4[C@H](C)CC[C@@H]1[C@@]24OO3 [Artesunate]
IC50 (EBOV [1]; Zaire ebolavirus, HeLa, read-out: IC50 (EBOV inhibitory activity)): 8.2 µM

C[C@H]1Cc2c([nH]c3cc(Cl)c(F)cc23)[C@@]2(N1)C(=O)Nc1ccc(Cl)cc12 [Cipargamin]
selectivity indexes (EBOV [1]): < 5

NC(=O)c1nc(F)c[nH]c1=O [Favipiravir (T-705), Favipiravir]
EBOV activity (in words) (EBOV [1]): inactive; also recorded: no activity at the concentrations tested | EC50 (EBOV [2]): 10 to 63 µg/mL | IC50 (EBOV [2]): 67 µM

CCCCN(CCCC)CC(O)c1cc(Cl)cc2c1-c1ccc(Cl)cc1/C2=C/c1ccc(Cl)cc1 (stereo not shown) [Lumefantrine]
EBOV activity (in words) (EBOV [1]): inactive

Clc1ccc2c(N3CCN(CCCN4CCN(c5ccnc6cc(Cl)ccc56)CC4)CC3)ccnc2c1 [Piperaquine Phosphate 4H20]
EBOV activity (in words) (EBOV [1]): inactive

CCN(CC)Cc1cc(Nc2ccnc3cc(Cl)ccc23)ccc1O [amodiaquine]
IC50 (EBOV [3]): 2.6 µM

CCN(CC)CCCC(C)Nc1ccnc2cc(Cl)ccc12 (stereo not shown) [chloroquine]
EC50 (EBOV [4]): 4 µM
